pIC50: −log10 of the molar value. Active and inactive are the calls of the source. The rule behind the calls is not given here. A value given as a limit tells only on which side of the number the result lay.

The test system of series [1] is Mus musculus. As to the kind of experiment: Inhibition of LPS-induced TNF-alpha production in po dosed female C57BL/6 mouse assessed as reduction in TNF-alpha level in brain administered via oral gavage for 60 mins followed by LPS stimulation at 0.6 ug, icv measured after 120 mins by ELISA. Format: functional, organism-based. Particulars: dose 10-30 mg/kg, time 180.0 min.

The subject of series [2] is Mus musculus. As to the kind of experiment: Inhibition of LPS-induced IL-1beta production in po dosed female C57BL/6 mouse assessed as reduction in IL-1beta level in brain administered via oral gavage for 60 mins followed by LPS stimulation at 0.6 ug, icv measured after 120 mins by ELISA. As to conditions: dose 10-30 mg/kg, time 180.0 min. Format: functional, organism-based. (In general: ELISA stands for enzyme-linked immunosorbent assay.)

In series [3] the test system is Mus musculus. As to the kind of experiment: Inhibition of LPS-induced IL-6 production in po dosed female C57BL/6 mouse assessed as reduction in IL-6 level in brain administered via oral gavage for 60 mins followed by LPS stimulation at 0.6 ug, icv measured after 120 mins by ELISA. Format: functional, organism-based. As to conditions: dose 10-30 mg/kg, time 180.0 min.

The nature of series [4]: Unbound brain-to-plasma concentration ratio in iv dosed rat measured at 4 to 24 hrs by LC-MS/MS analysis. It counts as ADME, organism-based. Particulars: brain and plasma, time 4-24 hrs, read-out: K(p,uu,brain).
Series [5] deals with Mus musculus. As to the kind of experiment: Inhibition of LPS-induced IL-6 production in po dosed female C57BL/6 mouse assessed as reduction in IL-6 level in plasma administered via oral gavage for 60 mins followed by LPS stimulation at 0.5 mg/kg, ip measured after 90 mins by ELISA. It counts as functional, organism-based.
For series [6], the system named is Mus musculus. The experiment in a line: Inhibition of IL-6 production in male C57BL/6 mouse model of distal hypoxic-middle cerebral artery occlusion stroke assessed as reduction in IL-6 level in brain at 10 to 30 mg/kg, po qd administered via oral gavage for 3 to 7 days starting from 1 hr 15 mins post cauterization by ELISA. It counts as functional, organism-based. Particulars: dose 10-30 mg/kg, time 3-7 day.

Series [7] can be described thus: Metabolic stability in human hepatocytes assessed as intrinsic clearance. It counts as ADME, cell-based, Hepatocyte. As to conditions: read-out: CLH.
Series [8] has as its system Mus musculus. The experiment in a line: Inhibition of TNF-alpha production in male C57BL/6 mouse model of distal hypoxic-middle cerebral artery occlusion stroke assessed as reduction in TNF-alpha level in CNS at 10 to 30 mg/kg, po qd administered via oral gavage for 3 to 7 days starting from 1 hr 15 mins post cauterization by ELISA. It counts as functional, organism-based. As to conditions: dose 10-30 mg/kg, time 3-7 day.

Series [9] deals with Mus musculus. The experiment in a line: Inhibition of IL-1beta production in male C57BL/6 mouse model of distal hypoxic-middle cerebral artery occlusion stroke assessed as reduction in IL-1beta level in brain at 10 to 30 mg/kg, po qd administered via oral gavage for 3 to 7 days starting from 1 hr 15 mins post cauterization by ELISA. Particulars: dose 10-30 mg/kg, time 3-7 day. Format: functional, organism-based.

Series [10] in a line: Metabolic stability in rat liver microsomes assessed as intrinsic clearance. It counts as ADME, Microsome. As to conditions: read-out: CLH. Background: Liver microsomes are a subcellular fraction often used to study metabolism.
The target of series [11] is Voltage-gated inwardly rectifying potassium channel KCNH2 (Homo sapiens, UniProt Q12809). As to the kind of experiment: Inhibition of hERG by patch clamp method. It counts as toxicity.
Voltage-gated inwardly rectifying potassium channel KCNH2, sequence (Q12809 whole entry): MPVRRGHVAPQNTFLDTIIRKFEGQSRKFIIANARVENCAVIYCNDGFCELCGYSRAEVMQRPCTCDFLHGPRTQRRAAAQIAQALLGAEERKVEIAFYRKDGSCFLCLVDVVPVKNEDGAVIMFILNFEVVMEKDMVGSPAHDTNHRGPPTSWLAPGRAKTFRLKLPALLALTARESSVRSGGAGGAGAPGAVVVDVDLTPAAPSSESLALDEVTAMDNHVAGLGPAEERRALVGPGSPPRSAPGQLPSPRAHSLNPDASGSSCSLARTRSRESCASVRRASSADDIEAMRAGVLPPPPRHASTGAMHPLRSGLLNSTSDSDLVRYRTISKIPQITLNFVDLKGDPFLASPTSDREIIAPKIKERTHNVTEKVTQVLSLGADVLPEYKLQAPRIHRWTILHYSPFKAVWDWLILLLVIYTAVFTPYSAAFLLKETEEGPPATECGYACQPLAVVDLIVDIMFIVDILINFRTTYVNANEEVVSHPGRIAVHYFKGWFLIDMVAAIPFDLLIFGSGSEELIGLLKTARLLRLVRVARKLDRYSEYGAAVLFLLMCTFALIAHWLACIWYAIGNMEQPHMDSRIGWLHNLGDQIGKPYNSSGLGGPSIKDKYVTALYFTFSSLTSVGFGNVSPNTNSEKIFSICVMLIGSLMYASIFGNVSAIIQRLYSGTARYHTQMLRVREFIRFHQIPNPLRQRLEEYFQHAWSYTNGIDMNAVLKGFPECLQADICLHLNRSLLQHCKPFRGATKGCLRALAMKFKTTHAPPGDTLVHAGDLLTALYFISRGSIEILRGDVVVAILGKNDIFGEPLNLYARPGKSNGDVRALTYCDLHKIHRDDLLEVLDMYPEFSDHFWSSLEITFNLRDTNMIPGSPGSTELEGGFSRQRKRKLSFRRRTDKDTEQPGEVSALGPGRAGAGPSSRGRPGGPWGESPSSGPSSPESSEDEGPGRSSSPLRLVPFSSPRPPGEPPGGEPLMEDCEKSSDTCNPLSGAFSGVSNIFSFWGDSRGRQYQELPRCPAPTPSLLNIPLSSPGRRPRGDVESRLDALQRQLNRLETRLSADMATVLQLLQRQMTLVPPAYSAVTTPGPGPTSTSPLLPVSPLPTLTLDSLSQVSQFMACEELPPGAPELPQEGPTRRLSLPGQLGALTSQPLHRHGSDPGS
The nature of series [12]: Clearance in rat at 1 mg/kg, iv by LC-MS/MS analysis. Particulars: in vivo. Format: ADME, organism-based.
Series [13] has as its system Mus musculus. The experiment in a line: Inhibition of LPS-induced IL-1beta production in po dosed female C57BL/6 mouse assessed as reduction in IL-1beta level in plasma administered via oral gavage for 60 mins followed by LPS stimulation at 0.5 mg/kg, ip measured after 90 mins by ELISA. It counts as functional, organism-based.
Series [14] in a line: Metabolic stability in human liver microsomes assessed as intrinsic clearance. Format: ADME, Microsome. As to conditions: read-out: CLH.
Series [15] is described as follows: Inhibition of […] induced IL-1beta production in human whole blood preincubated for 1 hr followed by R848 stimulation and measured after 4 hrs by MSD assay. Format: functional, tissue-based.
The nature of series [16]: Lipophilicity, logD of compound in n-octanol and aqueous buffer at pH 7.4 by RP-HPLC method. Format: physicochemical.
Series [17] deals with Mus musculus. As to the kind of experiment: Inhibition of LPS-induced TNF-alpha production in po dosed female C57BL/6 mouse assessed as reduction in TNF-alpha level in plasma administered via oral gavage for 60 mins followed by LPS stimulation at 0.5 mg/kg, ip measured after 90 mins by ELISA. It counts as functional, organism-based.
The nature of series [18]: Metabolic stability in rat hepatocytes assessed as intrinsic clearance. It counts as ADME, cell-based, Hepatocyte. As to conditions: read-out: CLH.
Series [19] is described as follows: Unbound clearance in rat at 1 mg/kg, iv by LC-MS/MS analysis. It counts as ADME, organism-based. Particulars: in vivo.
For series [20], the target named is T1, Interleukin-1 receptor-associated kinase 4 (Homo sapiens, UniProt Q9NWZ3).
T1 sequence (Q9NWZ3 whole entry): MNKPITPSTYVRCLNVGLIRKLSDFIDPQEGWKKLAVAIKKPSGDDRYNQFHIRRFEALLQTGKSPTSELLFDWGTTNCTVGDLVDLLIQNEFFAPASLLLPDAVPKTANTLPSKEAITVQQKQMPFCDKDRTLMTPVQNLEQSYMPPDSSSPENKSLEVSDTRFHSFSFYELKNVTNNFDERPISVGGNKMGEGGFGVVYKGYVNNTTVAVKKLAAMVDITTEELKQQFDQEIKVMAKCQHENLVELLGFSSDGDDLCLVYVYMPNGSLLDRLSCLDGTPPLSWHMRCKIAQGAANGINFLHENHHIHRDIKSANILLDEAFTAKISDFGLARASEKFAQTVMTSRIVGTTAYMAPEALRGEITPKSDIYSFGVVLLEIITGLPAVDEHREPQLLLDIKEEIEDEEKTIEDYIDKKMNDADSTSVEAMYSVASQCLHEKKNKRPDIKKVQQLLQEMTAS

In series [21] the test system is Mus musculus. The experiment in a line: Inhibition of TNF-alpha production in male C57BL/6 mouse model of distal hypoxic-middle cerebral artery occlusion stroke assessed as reduction in TNF-alpha level in brain at 10 to 30 mg/kg, po qd administered via oral gavage for 3 days starting from 1 hr 15 mins post cauterization by ELISA. It counts as functional, organism-based. As to conditions: dose 10-30 mg/kg, time 3.0 day.

Series [22] is described as follows: Free drug level in male C57BL/6 mouse brain at 30 mg/kg, po qd measured on 3 to 7 days. Format: ADME, organism-based. As to conditions: in vivo, time 3-7 day.
Series [23] concerns Mus musculus. As to the kind of experiment: Inhibition of IL-6 production in male C57BL/6 mouse model of distal hypoxic-middle cerebral artery occlusion stroke assessed as reduction in IL-6 level in CNS at 10 to 30 mg/kg, po qd administered via oral gavage for 3 days starting from 1 hr 15 mins post cauterization by ELISA. Format: functional, organism-based. As to conditions: dose 10-30 mg/kg, time 3.0 day.

The term pIC50 denotes the negative decadic logarithm of the IC50, by convention in mol/L. Low readings indicate a high IC50, high ones a low IC50. The clearance is the rate of elimination divided by the concentration. As usually defined, the logD is the decadic logarithm of the distribution of all forms, ionised or not, between an organic phase and buffer at a given pH. As to `CC(C)Oc1cc2nc(C34COC(C)(C3)C4)cn2cc1C(=O)Nc1cccc(C(F)F)n1`, the inhibition entry in series [1], in [2], in series [3], in series [5], in [13] and in series [17] was “Dose-Dependent Effect” in each case. Besides, the Kp uu in [4] worked out at 0.4. The inhibition entry in series [6] and in series [9] was “Active” throughout. Moreover, the CLint scaled in series [7] is 5.3 mL/min/kg; in [10], 11 mL/min/kg; in [14] it was under 5 mL/min/kg; in series [18], under 3 mL/min/kg. In addition, the inhibition result in series [8], in series [21] and in series [23] was “inactive” in each case. Also, the pIC50 in series [11] is 5.66; in series [15] (Homo sapiens, Blood) it was 6.51; in series [20] it was 9.77. This compound came in with a clearance in [12] of 15 mL/min/kg. Also, in [15] (time 5 hrs), the fIC50 worked out at 6 nM. The compound further came in with a logD in series [16] of 4.4. This compound showed a CL free in series [19] of 563 mL/min/kg. The “Drug uptake(free)” value in series [22] is reported as 100 nM.
